Measured values as given in article PMC9081329, “Pharmacokinetics, Mass Balance, Excretion, and Tissue Distribution of Plasmalogen Precursor PPI-1011” (Frontiers in Cell and Developmental Biology, 2022).
Like-named read-outs stand apart in the source and are kept apart here.

How the values were obtained:
[1] = Formulation concentration; type: physicochemical
[2] = set-up: method as in manuscript in preparation; details: doses up to 1,000 mg/kg in adult rats; ref manuscript in preparation; cited from earlier work
[3] = set-up: method as in manuscript in preparation; details: 28-day repeat dosing at 400 mg/kg in primates; ref manuscript in preparation; cited from earlier work

SMILES: CC/C=C\C/C=C\C/C=C\C/C=C\C/C=C\C/C=C\CCC(=O)OC(COCCCCCCCCCCCCCCCC)COC(=O)CCCCC1CCSS1 (stereo not drawn) [PPI-1011, 1-O-hexadecyl-2-O-cis-4,7, 10, 13, 16, 19-docosahexaenoyl-3-O-lipoyl glycerol]
- Concentration amenable to formulation [1]: ≤ 500 mg/mL
- Toxicity or adverse effects [2]: no toxicity or adverse effects
- Toxicity or adverse effects [3]: no toxicity or adverse effects
